The target of assay [1] is T1, human NAMPT (Homo sapiens, UniProt P43490).
T1 construct: N-terminally His6-tagged recombinant full length human NAMPT; His6 (N); made in house; host or cells: E. coli
Briefly: NAMPT biochemical assay (hNAMPT IC50), cascade assay with NMNAT1 and NAD/NADH-Glo detection. The following applies: Table 2; replicate values on separate lines. The text has this: NAMPT Biochemical Assay (hNAMPT IC50)
Nicotinamide phosphoribosyltransferase (NAMPT) inhibitory activity of compounds of the present invention was quantified employing a cascade assay as described in the following paragraphs. The assay couples the conversion of nicotinamide (NAM) to nicotinamide mononucleotide (NMN) by NAMPT with the conversion of NMN to […] adenine dinucleotide (NAD^+) by nicotinamide mononucleotide adenylyltransferase 1 (NMNAT1) and the subsequent quantification of the generated NAD^+ by a commercial detection kit (NAD/NADH-Glo™ Assay from Promega, #G9072).
N-terminally His6-tagged recombinant full length human NAMPT and N-terminally His6-tagged recombinant full length human NMNAT1, both expressed in E. coli and purified via Ni-NTA-affinity chromatography and consecutive size exclusion chromatography, were used as enzymes.
For the assay 50 nl of a 100 fold concentrated solution of the test compound in DMSO was pipetted into a white low volume 384 well microtiter plate (Greiner Bio-One, Frickenhausen, Germany), 2.5 μl of a solution of NAMPT in aqueous NMNAT1-containing assay buffer [50 mM Tris/HCl pH 7.5, 12 mM MgCl2, 0.6 mM adenosine-tri-phosphate (ATP), 1 nM NMNAT1, 0.02% (w/v) bovine serum albumin (Sigma-Aldrich #P7906), 0.001% (v/v) Tween-20 (Sigma-Aldrich #P7949)] were added and the mixture was incubated for 15 min at 22° C. to allow pre-binding of the test compounds to the enzyme before the start of the enzyme reaction. Then the reaction was started by the addition of 2.5 μl of a solution of NAM (300 nM=>final conc. in the 5 μl assay volume is 150 nM, Sigma-Aldrich #^47865) and 5-phosphorylribose-1-pyrophosphate pentasodium salt (PRPP, 1.2 μM=>final conc. in the 5 μl assay volume is 0.6 μM, Sigma-Aldrich P8296) in assay buffer and the resulting mixture was incubated for a reaction time of 20 min at 22° C. The concentration of NAMPT was adjusted depending of the activity of the enzyme lot and was chosen appropriate to have the assay in the linear range, typical final concentration in the 5 μl assay volume was 0.16 nM.
The resulting mixture was incubated 2 h at 22° C. to allow a steady-state of the detection system. Subsequently the generated luminescence was measured in a suitable luminescence reader, e.g. a Viewlux™ (Perkin-Elmer), and taken as a measure for the generated NAD^+.

The subject of assay [2] is MDA-MB-453. The assay can be described thus: Cell proliferation assay, Cell Titer Glo (CTG) method, MDA-MB-453. The format is cell-based. As for the experimental part:
(§1) Cell Proliferation Assay for Nampt-ADCs and Nampt-SMOLs
(§2) Cell Titer Glo (CTG) Method
(§3) To this end, 75 μL per well CTG solution (Promega, catalog #G755B and G756B) was added to cells in sister plates, incubated for 10 min, and luminescence was measured on a VICTOR V instrument (Perkin Elmer). After incubation for either 72 or 96 hrs (Table 1) in the presence of test compounds, 100 μl per well CTG solution was added to all test wells, incubated for 10 min and luminescence was measured on a VICTOR V instrument. […] The DRC software is a Biobook Spreadsheet that was developed by Bayer AG and Bayer Business Services on the IDBS E-Workbook Suite platform (IDBS: ID Business Solutions Ltd., Guildford, UK).
In general terms: ATP-based viability assays read luminescence as a measure of living cells.

The test system of assay [3] is A549 C4.4a B4. The assay can be described thus: Cell proliferation assay, Cell Titer Glo (CTG) method, A549 C4.4a B4. The assay is classed as cell-based, human. As for the experimental part:
as §1, §2, §3

In assay [4] the test system is THP-1. Briefly: Cell proliferation assay, Cell Titer Glo (CTG) method, THP-1. The assay is classed as cell-based, human. Conditions: 72 h. As to the method: as §1, §2, §3
Assay [5] has as its system U251 MG. The assay can be described thus: Cell proliferation assay, Cell Titer Glo (CTG) method, U251 MG. The assay is classed as cell-based. As to the method: as §1, §2, §3
Where [6] appears, read: Homo sapiens, MDA-MB-453, 72 h, Table 2, read-out: MDA-MB-453 72 h IC50.
Setting [7] is: Homo sapiens, A549, 72 h, Table 2, read-out: A549 C4.4a B4 72 h IC50.
The mark [8] stands for this setting: Homo sapiens, U-251, 72 h, Table 2.

Values joined by “and” are separate entries in the source; they are usually repeats but may differ in a detail not shown here. Identical values can stand only once. Like-named read-outs stand apart in the source and are kept apart here. Where only a bound is given, the exact number is not on record here.

T1 sequence (P43490 whole entry): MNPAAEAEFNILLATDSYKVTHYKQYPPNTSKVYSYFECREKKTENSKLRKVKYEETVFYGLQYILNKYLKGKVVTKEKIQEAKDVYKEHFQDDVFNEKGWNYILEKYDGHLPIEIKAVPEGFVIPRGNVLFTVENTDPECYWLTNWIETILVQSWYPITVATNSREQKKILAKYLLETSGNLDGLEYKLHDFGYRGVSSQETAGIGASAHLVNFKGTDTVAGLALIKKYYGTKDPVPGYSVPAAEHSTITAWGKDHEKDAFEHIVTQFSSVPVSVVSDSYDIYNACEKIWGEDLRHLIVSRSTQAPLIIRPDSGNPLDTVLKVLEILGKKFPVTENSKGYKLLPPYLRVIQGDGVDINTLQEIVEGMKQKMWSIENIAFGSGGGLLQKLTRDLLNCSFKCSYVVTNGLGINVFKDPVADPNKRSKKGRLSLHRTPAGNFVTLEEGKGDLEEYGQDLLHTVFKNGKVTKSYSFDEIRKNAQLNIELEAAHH

As for `O=C1NN=C(c2ccc(NC(=O)N3Cc4ccncc4C3)cc2)CC1c1ccc2[nH]ncc2c1` (stereo not drawn) [Example 17, N-{4-[5-(1H-indazol-5-yl)-6-oxo-1,4,5,6-tetrahydropyridazin-3-yl]phenyl}-1,3-dihydro-2H-pyrrolo[3,4-c]pyridine-2-carboxamide], the IC50 was 0.218 nM and 0.346 nM in assay [1]; < 0.03 nM in assay [2] (setting [6]); 12.4 nM in assay [3] (setting [7]); 0.0385 nM in assay [4] (Homo sapiens, THP-1, Table 2); 0.642 nM in assay [5] (setting [8]).

On to `Cc1nnc(-c2cc(-c3ccc(NC(=O)N4Cc5ccncc5C4)cc3)n[nH]c2=O)o1` [Example 9, N-{4-[5-(5-methyl-1,3,4-oxadiazol-2-yl)-6-oxo-1,6-dihydropyridazin-3-yl]phenyl}-1,3-dihydro-2H-pyrrolo[3,4-c]pyridine-2-carboxamide], for which the IC50 in assay [1] was 0.457 nM and 0.717 nM; in assay [2] (setting [6]), 0.0357 nM; in assay [3] (setting [7]), 97.2 nM; in assay [4] (Homo sapiens, THP-1, Table 2), 1.21 nM; in assay [5] (setting [8]), 4.34 nM.

`Cc1nnc(-c2cc(-c3ccc(NC(=O)N4Cc5ccncc5C4)cc3)nn(CCCCN)c2=O)o1` [Example 8, N-{4-[1-(4-Aminobutyl)-5-(5-methyl-1,3,4-oxadiazol-2-yl)-6-oxo-1,6-dihydropyridazin-3-yl]phenyl}-1,3-dihydro-2H-pyrrolo[3,4-c]pyridine-2-carboxamide]: the IC50 was 1.04 nM and 1.32 nM in assay [1]; 2.66 nM in assay [2] (setting [6]); 93.5 nM in assay [3] (setting [7]); 0.979 nM in assay [4] (Homo sapiens, THP-1, Table 2); 28.1 nM in assay [5] (setting [8]).

On to `NCCCCN1N=C(c2ccc(NC(=O)N3Cc4ccncc4C3)cc2)C[C@](c2cccc3ncccc23)(C(F)(F)F)C1=O` [Example 13, N-{4-[(5R)-1-(4-aminobutyl)-6-oxo-5-(quinolin-5-yl)-5-(trifluoromethyl)-1,4,5,6-tetrahydropyridazin-3-yl]phenyl}-1,3-dihydro-2H-pyrrolo[3,4-c]pyridine-2-carboxamide], for which the IC50 is 2.77 nM and 3.2 nM in assay [1]; 0.436 nM in assay [2] (setting [6]); 227 nM in assay [3] (setting [7]); 0.447 nM in assay [4] (Homo sapiens, THP-1, Table 2); 43.7 nM in assay [5] (setting [8]).

With `Cc1nnc(C2CC(c3ccc(NC(=O)N4Cc5ccncc5C4)cc3)=NNC2=O)o1` (stereo not drawn) [Example 7, N-{4-[5-(5-Methyl-1,3,4-oxadiazol-2-yl)-6-oxo-1,4,5,6-tetrahydropyridazin-3-yl]phenyl}-1,3-dihydro-2H-pyrrolo[3,4-c]pyridine-2-carboxamide], the IC50 in assay [1] was 1.02 nM and 1.2 nM; in assay [2] (setting [6]), 0.299 nM; in assay [3] (setting [7]), > 300 nM; in assay [4] (Homo sapiens, THP-1, Table 2) it was 0.995 nM; in assay [5] (setting [8]), 8.95 nM.

As to `O=C(Nc1ccc(-c2cc(-c3ccc4[nH]ncc4c3)c(=O)[nH]n2)cc1)N1Cc2ccncc2C1` [Example 16, N-{4-[5-(1H-indazol-5-yl)-6-oxo-1,6-dihydropyridazin-3-yl]phenyl}-1,3-dihydro-2H-pyrrolo[3,4-c]pyridine-2-carboxamide-hydrogen chloride], the IC50 in assay [1] was 0.323 nM and 0.326 nM; in assay [2] (setting [6]), < 0.03 nM; in assay [3] (setting [7]), 23.2 nM; in assay [4] (Homo sapiens, THP-1, Table 2), < 0.003 nM; in assay [5] (setting [8]) it was 0.0411 nM; in assay [5] (Table 2, 72 h) it was 0.057 nM.

For the molecule “2 or 3-{[(2R)-2-Amino-2-carboxyethyl]sulfanyl}-4-{[2-({6-[3-{4-[(1,3-dihydro-2H-pyrrolo[3,4-c]pyridine-2-carbonyl)amino]phenyl}-5-(5-methyl-1,3,4-oxadiazol-2-yl)-6-oxopyridazin-1(6H)-yl]hexyl}amino)-2-oxoethyl]amino}-4-oxobutanoic Acid [Example 34M]”, the IC50 in assay [1] is 1.17 nM and 1.18 nM; in assay [2] (Table 2, 72 h, read-out: MDA-MB-453 72 h IC50), 91.2 nM; in assay [3] (Table 2, 72 h, read-out: A549 C4.4a B4 72 h IC50), > 300 nM; in assay [4] (Table 2), > 300 nM; in assay [5] (Table 2, 72 h) it was > 300 nM.

Regarding `NCCCCCCn1nc(-c2ccc(NC(=O)N3Cc4ccncc4C3)cc2)cc(-c2cccc3ncccc23)c1=O` [Example 6, N-{4-[1-(6-Aminohexyl)-6-oxo-5-(quinolin-5-yl)-1,6-dihydropyridazin-3-yl]phenyl}-1,3-dihydro-2H-pyrrolo[3,4-c]pyridine-2-carboxamide], the IC50 in assay [1] was 0.267 nM and 0.288 nM; in assay [2] (setting [6]), < 0.03 nM; in assay [3] (setting [7]), 11 nM; in assay [4] (Homo sapiens, THP-1, Table 2) it was < 0.003 nM; in assay [5] (setting [8]), < 0.03 nM.

As for `O=C(Nc1ccc(-c2cc(-c3cccc4[nH]ncc34)c(=O)[nH]n2)cc1)N1Cc2ccncc2C1` [Example 18, N-{4-[5-(1H-indazol-4-yl)-6-oxo-1,6-dihydropyridazin-3-yl]phenyl}-1,3-dihydro-2H-pyrrolo[3,4-c]pyridine-2-carboxamide], the IC50 in assay [1] was 0.213 nM and 0.226 nM; in assay [2] (setting [6]), < 0.03 nM; in assay [3] (setting [7]) it was 58.5 nM; in assay [4] (Homo sapiens, THP-1, Table 2) it was ≤ 0.003 nM; in assay [5] (setting [8]) it was < 0.03 nM; in assay [5] (Table 2, 72 h) it was 0.0428 nM.

`Cc1nnc(-c2cc(-c3ccc(NC(=O)N4Cc5ccncc5C4)cc3)nn(CCCCCCN)c2=O)o1` [Example 10, N-{4-[1-(6-Aminohexyl)-5-(5-methyl-1,3,4-oxadiazol-2-yl)-6-oxo-1,6-dihydropyridazin-3-yl]phenyl}-1,3-dihydro-2H-pyrrolo[3,4-c]pyridine-2-carboxamide]: the IC50 in assay [1] is 0.358 nM and 0.389 nM; in assay [2] (setting [6]), 0.0943 nM; in assay [3] (setting [7]), 267 nM; in assay [4] (Homo sapiens, THP-1, Table 2), 0.00471 nM; in assay [5] (setting [8]) it was 8.87 nM.

On to “2 or 3-{[(2R)-2-Amino-2-carboxyethyl]sulfanyl}-4-{[2-({6-[3-{4-[(1,3-dihydro-2H-pyrrolo[3,4-c]pyridine-2-carbonyl)amino]phenyl}-6-oxo-5-(quinolin-5-yl)-5,6-dihydropyridazin-1(4H)-yl]hexyl}amino)-2-oxoethyl]amino}-4-oxobutanoic Acid [Example 30M]”, for which the IC50 in assay [2] (Table 3 (ADCs), DSMZ cells, 72 h, read-out: MDA-MB-453 DSMZ 72 h IC^50) was 9.96 nM; in assay [3] (Table 3 (ADCs), 72 h, read-out: A549 C4.4a 72 h IC^50) it was > 300 nM; in assay [4] (Table 3 (ADCs), read-out: THP-1 72 h IC^50) it was 81.1 nM; in assay [5] (Table 3 (ADCs), 72 h, read-out: U-251 72 h IC^50) it was > 300 nM.

As to `O=C(Nc1ccc(-c2cc(-c3ccc4[nH]ccc4c3)c(=O)[nH]n2)cc1)N1Cc2ccncc2C1` [Example 20, N-{4-[5-(1H-indol-5-yl)-6-oxo-1,6-dihydropyridazin-3-yl]phenyl}-1,3-dihydro-2H-pyrrolo[3,4-c]pyridine-2-carboxamide], the IC50 was 0.156 nM and 0.229 nM in assay [1]; < 0.03 nM in assay [2] (setting [6]); 6.39 nM in assay [3] (setting [7]); < 0.003 nM in assay [4] (Homo sapiens, THP-1, Table 2); < 0.03 nM in assay [5] (setting [8]).

For the molecule `NCCCCn1nc(-c2ccc(NC(=O)N3Cc4ccncc4C3)cc2)cc(-c2ccc3cccnc3c2)c1=O` [Example 25, N-{4-[1-(4-Aminobutyl)-6-oxo-5-(quinolin-7-yl)-1,6-dihydropyridazin-3-yl]phenyl}-1,3-dihydro-2H-pyrrolo[3,4-c]pyridine-2-carboxamide], the IC50 in assay [1] is 0.803 nM and 1.15 nM; in assay [2] (setting [6]) it was < 0.03 nM; in assay [3] (setting [7]) it was 57.1 nM; in assay [4] (Homo sapiens, THP-1, Table 2), 0.0227 nM; in assay [5] (setting [8]) it was 0.428 nM.

(Values after patent publication US20200360531A1, “ANTIBODY DRUG CONJUGATES (ADCS) WITH NAMPT INHIBITORS” (Bayer Aktiengesellschaft, priority 2018, published 2020).)
